Measurements as given in article PMC3116712 (ACS medicinal chemistry letters, 2011).

Molecular target: WT A/M2 proton channel (Influenza A virus, UniProt P0DOF5)
Type: cell-based
Settings: TEVC

Chain of WT A/M2 proton channel (P0DOF5 whole entry, looked up): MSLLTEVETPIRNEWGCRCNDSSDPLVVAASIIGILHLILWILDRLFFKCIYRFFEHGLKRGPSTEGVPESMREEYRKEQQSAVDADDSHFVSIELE

For `NN1C(=O)CC2(CCCCC2)CC1=O` [Compound 17], which “activity against WT A/M2 channel (in words)” value (“activity” for short) is on record?
The value was “only weakly active”.

With `OC1C2C3CC4C1C1C2CC3C41` (stereo not drawn) [Compound 19] as the molecule, how does the “activity” value read?
Its value is “only moderate inhibition”.

How did the “activity” value turn out when `O=C1CC2(CCCCC2)CC(=O)N1` [Compound 16] was run?
The value was “only weakly active”.

How did the “activity” value turn out when `O=S(=O)(O)C12CC3CC(CC(C3)C1)C2` [Compound 3, 1-adamantyl sulfonic acid] was run?
Its value is “inactive”.

Which “activity” value does the source give for `CC12CC3(O)CC1(C)CC3(O)C2` [Compound 26] here?
The value was “only moderately active”.

For `Cl.NC12CC3CC(C1)CC(CO)(C3)O2` [Compound 25], which “activity” value is on record?
The value was “not active”.
